Measured values: patent EP2349259B1, “INHIBITORS OF MITOSIS FOR […] IN THERAPY” (Array Biopharma, Inc., priority 2008, dated 2010)

Experiments:
[1] = Determination of MTD of Compound 4 in mice (HT-29 xenograft study); details: mouse, in vivo; female nude mice with subcutaneous HT-29 xenografts; compound dissolved in normal saline
Method: Female nude mice were implanted subcutaneously with 5 x 10^6 HT-29 cells in 100 µL PBS. Ten days Inter, tumors were measured and mice randomized into groups of three with average tumor volume in each group of approximately 240 mm^3. Compound 4 was dissolved in normal saline immediately before dosing. It was determined that 20 mg/kg was the MTD for Compound 4. Dose volume was 10 mL/kg. Dosing was vehicle alone on day 1; and Compound 4 at 20 mg/kg on day 1; and 20 mg/kg on days 1 and 3. At various time points after dosing (24, 48, 72, 96, 120 and 144 hours), mice were euthanized by CO2 inhalation, and the tumors were harvested and immediately placed in formalin. The vehicle control group samples were collected 24 and 72 hours after dosing. The day I group samples were collected 24, 48, 72 and 96 hours after that dose. The day 1 and day 3 group samples were collected 72, 96, 120 and 144 hours after the first dose. Paraffin blocks of tumor tissue were prepared by standard procedures. […] Spindle structures were manually counted in three 40X areas of each sample, using a fluorescent microscope. Apoptosis was quantitated by manual counting of TUNEL positive cells, also in three 40X areas of each sample (TUNEL staining using the In Situ Cell Death Detection Kit, AP from Roche).

[2] = Tolerability in tumor growth inhibition study on different dosing schedules (HT-29); type: in vivo, nude mice; details: 10 mg/kg IP on days 1, 2, 3, 4 and 5
Method: Female nude mice were implanted subcutaneously with 5 x 10^6 HT-29 cells in 100 µL PBS. Eleven to fourteen days later, tumors were measured and mice randomized into groups of seven with average tumor volume in each group of approximately 230 mm^3. Compound 4 was dissolved in normal saline immediately prior to dosing, and administered IP at a volume of 10 mL/kg. Dosing was vehicle alone on day 1 and day 2; and Compound 4 at 20 mg/kg on day 1; 20 mg/kg on days I and 2; 20 mg/kg on days 1 and 3; 5 mg/kg on days 1, 2 and 3; 10 mg/kg on days 1, 2 and 3; 10 mg/kg on days 1, 2, 3, 4 and 5; 10 mg/kg on days 1 and 2; and 10 mg/kg on days 1 and 3. Animal weights and tumor volumes were measured (using electronic calipers) twice a week. Tumor volume was calculated using the formula: volume = (width^2 x length)/2. Dosing at 10 mg/kg on days 1, 2, 3, 4 and 5 was not tolerated (greater than 20% weight loss and/or death in some of the mice).

[3] = Determination of MTD in a Phase 1 Study; type: in vivo, human; details: IV on Days 1 and 2 every two weeks
Text: A total of 13 patients with various solid tumors and with a median age of 66 years (range 40-79 years old) were enrolled in a human phase 1 clinical trial (see "Phase 1 Safety and Phamacokinetic Study of ARRY-520 in Solid Tumors." http://clinicaltrials.gov/ct2/show/NCT00462358). The solid tumors treated were breast cancer (2), colorectal cancer (2), non-small cell lung cancer (2), pancreatic cancer (2), bladder cancer, salivary gland cancer (adenoid cystic), esophageal cancer, mesothelioma cancer, and a mixed small cell lung cancer / non-small cell lung cancer. Compound 4 was provided for administration as a lyophilized powder contained in a Type 1 clear glass vial for IV use. The dose levels administered were 1.25 and 1.6 mg/m^2/day of Compound 4 on Days 1 and 2 every two weeks.

With `CON(C)C(=O)N1N=C(c2cc(F)ccc2F)S[C@@]1(CCCN)c1ccccc1` [Compound 4, (S)-2-(3-aminopropyl)-5-(2,5-difluorophenyl)-N-methoxy-N-methyl-2-phenyl-1,3,4-thiadiazole-3(2H)-carboxamide] the MTD [1] was 20 mg/kg, the “tolerability of dosing schedule” value ([2]; female nude mice with HT-29 xenografts) was “not tolerated” and the weight loss ([2]; weight loss and/or death in some of the mice) was “greater than 20%”. The MTD ([3]; 13 patients with various solid tumors, dose levels 1.25 and 1.6 mg/m^2/day) was 1.25 mg/m^2/day, the DLTs ([3]; patients with solid tumors) was “Grade 3 hyponatremia, anorexia, AST increase and febrile neutropenia” and the “MTD, cumulative dose per cycle” value ([3]; patients with solid tumors) was 2.5 mg/m^2.
